Measurements from patent US10053485B2, “Cytotoxic agents that preferentially target leukemia inhibitory factor (LIF) for the treatment of malignancies and as new contraceptive agents” (Evestra, Inc., priority 2015, dated 2018).

Columns and labels:
U87-MU (Glioma cells) = test: Short term (72 h) cytotoxicity assay; assay type: cell-based; conditions: Glioma cell
LOX IMVI = test: NCI-60 screen, Melanoma panel; assay type: cell-based; conditions: Homo sapiens, 48 h
HS 578T = test: NCI-60 screen, Breast Cancer panel; assay type: cell-based; conditions: Homo sapiens, 48 h
SF-268 = test: NCI-60 screen, CNS Cancer panel; assay type: cell-based; conditions: Homo sapiens, SF-268, 48 h
UACC-257 = test: NCI-60 screen, Melanoma panel; assay type: cell-based; conditions: Homo sapiens, UACC-257, 48 h
[1] = system: human umbilical vein endothelial cells (HUVEC); test: Matrigel in vitro HUVECs tube formation assay (angiogenesis); assay type: cell-based
Experimental: Matrigel in vitro HUVECs tube formation assay: The tube formation assay was performed using 12-well plate coated with 100 μL Matrigel basement membrane matrix (BD Bioscience) per well and polymerized at 37° C. for 30 min. Human umbilical vascular endothelial cells (HUVECs) suspended in M199 medium containing 2% FBS were plated on the Matrigel at a density of 2×10^5 cells/well. […] After 8 h, the Matrigel-induced morphological changes were photographed and the extent of capillary tube formation was evaluated by measuring the total tube length per field.

COLO 205 = test: NCI-60 screen, Colon Cancer panel; assay type: cell-based; conditions: Homo sapiens, COLO 205, 48 h
[2] = system: MDM2 / P53 in MCF-7 cells; test: P53 / MDM2 levels in MCF-7 cells (FIG. 5); assay type: cell-based, human
DU-145 = test: NCI-60 screen, Prostate Cancer panel; assay type: cell-based; conditions: Homo sapiens, DU-145, 48 h, read-out: GI50 (log10GI50) (converted)
UACC-62 = test: NCI-60 screen, Melanoma panel; assay type: cell-based; conditions: Homo sapiens, UACC-62, 48 h
[3] = system: LIF-overexpressing MCF-7 (MCF-7 LIF) human breast cancer cells; test: LIF specificity assay, LIF-overexpressing cells; assay type: cell-based
HT29 = test: NCI-60 screen, Colon Cancer panel; assay type: cell-based; conditions: Homo sapiens, HT-29, 48 h
SK-OV-3 = test: NCI-60 screen, Ovarian Cancer panel; assay type: cell-based; conditions: Homo sapiens, SK-OV-3, 48 h
MDA-MB-231 ATCC = test: NCI-60 screen, Breast Cancer panel; assay type: cell-based; conditions: Homo sapiens, MDA-MB-231, 48 h
HCC-2998 = test: NCI-60 screen, Colon Cancer panel; assay type: cell-based; conditions: Homo sapiens, HCC 2998, 48 h
CCRF-CEM = test: NCI-60 screen, Leukemia panel; assay type: cell-based; conditions: Homo sapiens, 48 h
MALME-3M = test: NCI-60 screen, Melanoma panel; assay type: cell-based; conditions: Homo sapiens, 48 h
SF-539 = test: NCI-60 screen, CNS Cancer panel; assay type: cell-based; conditions: Homo sapiens, SF-539, 48 h
A498 = test: NCI-60 screen, Renal Cancer panel; assay type: cell-based; conditions: Homo sapiens, A498, 48 h
MCF7 = test: NCI-60 screen, Breast Cancer panel; assay type: cell-based; conditions: Homo sapiens, MCF7, 48 h
[4] = system: human endometrial stromal cells (HESC); test: Decidualization assay, actin cytoskeleton by phalloidin staining; assay type: cell-based; conditions: FIG. 3
Experimental: Decidualization studies: The above compounds were investigated originally for the treatment of endometriosis. The compounds were tested in a decidualization assay using human endometrial stromal fibroblast (HESC) cells. In preparation for the possibility of embryonic attachment, the stromal cells in the endometrium undergo extensive waves of proliferation, remodeling, and terminal differentiation that transforms the endometrium into an endocrine gland, called decidua. This transformation is called decidualization and it is under the control by ovarian hormones.
The level of apoptosis increases from the proliferative phase through menstrual cycle and peaks at menses. […] However if the cells are subjected to conditions that induce decidualization, stromal cells will begin to differentiate instead of undergoing apoptosis.
Briefly, human stromal endometrial cells were plated in the presence and absence of progesterone and allow undergoing decidualization. The cells treated with test compounds of different concentrations and stained for actin cytocketal morphology using phalloidin staining and monitored under fluorescent microscope.

RXF 393 = test: NCI-60 screen, Renal Cancer panel; assay type: cell-based; conditions: Homo sapiens, RXF 393, 48 h
[5] = read-out: GI50 (log10GI50) (converted)
[6] = read-out: LC50 (log10LC50) (converted)

SMILES: C#CC(F)(F)[C@]1(O)CCC2C3CCC4=CC(=O)CCC4=C3C(c3ccc(C4CC4)cc3)C[C@@]21C (stereo partly drawn) [EC330, 17α-(1,1-difluoro-2-propyn-1-yl)-17β-hydroxy-11β-[4-p-(cyclopropyl)phenyl]estra-4,9-dien-3-one]
- IC50 (U87-MU (Glioma cells)): 25 nM
- GI50 (LOX IMVI; [5]): < 10 nM
- CC50 (LOX IMVI; [6]): < 10 nM
- GI50 (HS 578T; [5]): 2290 nM
- CC50 (HS 578T; [6]): > 100000 nM
- GI50 (SF-268; [5]): 126 nM
- CC50 (SF-268; [6]): 1550 nM
- GI50 (UACC-257; [5]): 7080 nM
- CC50 (UACC-257; [6]): > 100000 nM
- tube formation ([1]; 1 μM concentration, all measured time points): complete abrogation
- angiogenesis in vitro (tube formation assay) ([1]; FIG. 2): inhibited
- GI50 (COLO 205; [5]): 794 nM
- CC50 (COLO 205; [6]): 8910 nM
- P53 levels / MDM2 [2]: restore P53 levels by inhibiting MDM2
- GI50 (DU-145): 1910 nM
- GI50 (UACC-62; [5]): 1950 nM
- CC50 (UACC-62; [6]): > 100000 nM
- IC50 ([3]; Homo sapiens, MCF7, read-out: MCF-7 LIF IC50): 80 nM
- vulnerability of LIF overexpressing cells to cell death ([3]; LIF-overexpressing vs. unmodified MCF-7, in words): more vulnerable to cell death
- GI50 (HT29; [5]): < 10 nM
- CC50 (HT29; [6]): 692 nM
- GI50 (SK-OV-3; [5]): 117 nM
- CC50 (SK-OV-3; [6]): 661 nM
- GI50 (MDA-MB-231 ATCC; [5]): 550 nM
- CC50 (MDA-MB-231 ATCC; [6]): > 100000 nM
- GI50 (HCC-2998; [5]): 2950 nM
- CC50 (HCC-2998; [6]): > 100000 nM
- GI50 (CCRF-CEM; [5]): < 10 nM
- CC50 (CCRF-CEM; [6]): < 10 nM
- GI50 (MALME-3M; [5]): < 10 nM
- CC50 (MALME-3M; [6]): 81.3 nM
- GI50 (SF-539; [5]): < 10 nM
- CC50 (SF-539; [6]): 52.5 nM
- GI50 (A498; [5]): 263 nM
- CC50 (A498; [6]): 3890 nM
- GI50 (MCF7; [5]): 1230 nM
- CC50 (MCF7; [6]): > 100000 nM
- actin / alpha-smooth muscle mediated cytoskeletal disruption of fibroblast [4]: cytoskeletal disruption
- GI50 (RXF 393; [5]): 1070 nM
- CC50 (RXF 393; [6]): > 100000 nM
